The assay concerns the target IDH1 R132H (Homo sapiens, UniProt O75874, R132H). Description: Assay for IDH1 R132H inhibitors (NADPH/aKG, resazurin detection). The assay is classed as biochemical. The note with it: Table 3; enzyme assay, 50 minutes at room temperature; read-out: IC50 (IDH1 R132H Inhibition). The essentials:
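Compound added to substrate mix (8 uM NADPH, 2 mM aKG), then enzyme mix (0.2 μg/ml IDH1 R132H); 50 min RT in 20 mM Tris pH 7.5, 150 mM NaCl, 10 mM MgCl2, 0.03% BSA. Resazurin detection mix (30 μM) 5 min RT; resorufin fluorescence Ex544/Em590.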
A general note: Alamar Blue is a resazurin reagent that responds to reducing activity.

Here are results for 24 compounds from US9856279B2 (AGIOS PHARMACEUTICALS, INC, priority 2011, dated 2018).

IDH1 R132H, sequence (O75874 whole entry R132H): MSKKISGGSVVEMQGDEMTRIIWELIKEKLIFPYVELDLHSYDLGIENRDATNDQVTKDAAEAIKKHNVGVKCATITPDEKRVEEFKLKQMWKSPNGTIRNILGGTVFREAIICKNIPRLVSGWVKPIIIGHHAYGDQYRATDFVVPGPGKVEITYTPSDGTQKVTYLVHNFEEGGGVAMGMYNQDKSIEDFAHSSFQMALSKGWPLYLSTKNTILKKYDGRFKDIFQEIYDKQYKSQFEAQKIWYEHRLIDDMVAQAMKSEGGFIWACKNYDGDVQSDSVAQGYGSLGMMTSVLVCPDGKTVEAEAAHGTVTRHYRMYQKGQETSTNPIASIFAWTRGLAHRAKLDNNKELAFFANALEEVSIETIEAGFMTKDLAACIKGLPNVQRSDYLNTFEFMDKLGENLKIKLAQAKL

For the compound `CC(C)c1nc(N2CCN(C(=O)c3ccoc3)[C@H](C)C2)c(C#N)cc1-c1ccoc1` [Compound 204, (R)-2-(4-(furan-3-carbonyl)-3-methylpiperazin-1-yl)-5-(furan-3-yl)-6-isopropylnicotinonitrile], the half-inhibitory concentration (IC50) – broadly, the concentration that gives 50% inhibition – lay in the range of 1000 to 5000 nM.
The value for `COCCC(=O)N1CCN(c2nc(C(C)C)c(-c3ccoc3)cc2C#N)C[C@H]1C` [Compound 205, (R)-5-(furan-3-yl)-6-isopropyl-2-(4-(3-methoxypropanoyl)-3-methylpiperazin-1-yl)nicotinonitrile] was 1000 to 5000 nM; that for `CC(C)c1ccc(-c2cc(C#N)c(N3CCN(C(=O)c4ccoc4)[C@H](C)C3)nc2C(C)C)cc1` [Compound 206, (R)-2-(4-(furan-3-carbonyl)-3-methylpiperazin-1-yl)-6-isopropyl-5-(4-isopropylphenyl)nicotinonitrile] was 1000 to 5000 nM.
The value for `COCCC(=O)N1CCN(c2nc(C(C)C)c(-c3ccc(F)cc3)cc2C#N)C[C@H]1C` [Compound 207, (R)-5-(4-fluorophenyl)-6-isopropyl-2-(4-(3-methoxypropanoyl)-3-methylpiperazin-1-yl)nicotinonitrile] was at most 1000 nM.
Then `COCCC(=O)N1CCN(c2nc(C(C)C)c(-c3ccc(C(C)C)cc3)cc2C#N)C[C@H]1C` [Compound 208, (R)-6-isopropyl-5-(4-isopropylphenyl)-2-(4-(3-methoxypropanoyl)-3-methylpiperazin-1-yl)nicotinonitrile], with 1000 to 5000 nM; and `COCCC(=O)N1CCN(c2nc(C(C)C)c(-c3cc4ccccc4o3)cc2C#N)C[C@H]1C` [Compound 209, (R)-5-(benzofuran-2-yl)-6-isopropyl-2-(4-(3-methoxypropanoyl)-3-methylpiperazin-1-yl)nicotinonitrile], with 1000 to 5000 nM.
`COCCC(=O)N1CCN(c2nc(C(C)C)c(-c3cncnc3)cc2C#N)C[C@H]1C` [Compound 210, (R)-6-isopropyl-2-(4-(3-methoxypropanoyl)-3-methylpiperazin-1-yl)-5-0γ(pyrimidin-5-yl)nicotinonitrile]: the half-maximal inhibitory concentration (IC50) was in the range of 5000 to 15000 nM.
The value for `COCCC(=O)N1CCN(c2nc(C(C)C)c(-c3ccc4ccccc4c3)cc2C#N)C[C@H]1C` [Compound 211, (R)-6-isopropyl-2-(4-(3-methoxypropanoyl)-3-methylpiperazin-1-yl)-5-(naphthalen-2-yl)nicotinonitrile] was 1000 to 5000 nM; that for `COCCC(=O)N1CCN(c2nc(C(C)C)c(-c3cccc(OC)c3)cc2C#N)C[C@H]1C` [Compound 212, (R)-6-isopropyl-5-(3-methoxyphenyl)-2-(4-(3-methoxypropanoyl)-3-methylpiperazin-1-yl)nicotinonitrile] was at most 1000 nM.
With `COCCC(=O)N1CCN(c2nc(C(C)C)c(-c3ccncc3)cc2C#N)C[C@H]1C` [Compound 213, (R)-2-isopropyl-6-(4-(3-methoxypropanoyl)-3-methylpiperazin-1-yl)-3,4′-bipyridine-5-carbonitrile], the IC50 is 1000 to 5000 nM.
The value for `COCCC(=O)N1CCN(c2nc(C(C)C)c(-c3ccc(OC)cc3)cc2C#N)C[C@H]1C` [Compound 214, (R)-6-isopropyl-5-(4-methoxyphenyl)-2-(4-(3-methoxypropanoyl)-3-methylpiperazin-1-yl)nicotinonitrile] was 1000 to 5000 nM; that for `COCCC(=O)N1CCN(c2nc(C(C)C)c(-c3ccc(Cl)cc3)cc2C#N)C[C@H]1C` [Compound 215, (R)-5-(4-chlorophenyl)-6-isopropyl-2-(4-(3-methoxypropanoyl)-3-methylpiperazin-1-yl)nicotinonitrile] was 1000 to 5000 nM.
`CCc1ccc(-c2cc(C#N)c(N3CCN(C(=O)CCOC)[C@H](C)C3)nc2C(C)C)cc1` [Compound 216, 5-(4-ethylphenyl)-6-isopropyl-2-(4-(3-methoxypropanoyl)-3-methylpiperazin-1-yl)nicotinonitrile]: the half-maximal inhibitory concentration (IC50) lay in the range of 1000 to 5000 nM.
In the case of `COCCC(=O)N1CCN(c2nc(C(C)C)c(-c3cccc4ccccc34)cc2C#N)C[C@H]1C` [Compound 217, (R)-6-isopropyl-2-(4-(3-methoxypropanoyl)-3-methylpiperazin-1-yl)-5-(naphthalen-1-yl)nicotinonitrile], the concentration for half-maximal inhibition (IC50) lay within 1000 to 5000 nM.
The value for `COCCC(=O)N1CCN(c2nc(C(C)C)c(-c3cccc(Cl)c3)cc2C#N)C[C@H]1C` [Compound 218, (R)-5-(3-chlorophenyl)-6-isopropyl-2-(4-(3-methoxypropanoyl)-3-methylpiperazin-1-yl)nicotinonitrile] was 1000 to 5000 nM; that for `COCCC(=O)N1CCN(c2nc(C(C)C)c(-c3ccc(C)c(C)c3)cc2C#N)C[C@H]1C` [Compound 220, (R)-5-(3,4-dimethylphenyl)-6-isopropyl-2-(4-(3-methoxypropanoyl)-3-methylpiperazin-1-yl)nicotinonitrile] was 1000 to 5000 nM; that for `COCCC(=O)N1CCN(c2nc(C(C)C)c(-c3ccc(C)c(F)c3)cc2C#N)C[C@H]1C` [Compound 221, (R)-5-(3-fluoro-4-methylphenyl)-6-isopropyl-2-(4-(3-methoxypropanoyl)-3-methylpiperazin-1-yl)nicotinonitrile] was 1000 to 5000 nM.
In the case of `COCCC(=O)N1CCN(c2nc(C(C)C)c(-c3ccccc3)cc2C#N)C[C@H]1C` [Compound 222, (R)-6-isopropyl-2-(4-(3-methoxypropanoyl)-3-methylpiperazin-1-yl)-5-phenylnicotinonitrile], the 50% inhibitory concentration (IC50) is at most 1000 nM.
The value for `COCCC(=O)N1CCN(c2nc(C(C)C)c(-c3ccc(OC)c(OC)c3)cc2C#N)C[C@H]1C` [Compound 223, (R)-5-(3,4-dimethoxyphenyl)-6-isopropyl-2-(4-(3-methoxypropanoyl)-3-methylpiperazin-1-yl)nicotinonitr-ile] was at most 1000 nM; that for `COCCC(=O)N1CCN(c2nc(C(C)C)c(-c3ccc4c(c3)OCO4)cc2C#N)C[C@H]1C` [Compound 224, (R)-5-(benzo[d][1,3]dioxol-5-yl)-6-isopropyl-2-(4-(3-methoxypropanoyl)-3-methylpiperazin-1-yl)nicotinonitrile] was at most 1000 nM; that for `COCCC(=O)N1CCN(c2nc(C3CC3)c(-c3cccc(C)c3)cc2C#N)C[C@H]1C` [Compound 225, (R)-6-cyclopropyl-2-(4-(3-methoxypropanoyl)-3-methylpiperazin-1-yl)-5-m-tolylnicotinonitrile] was at most 1000 nM.
Consider `COCCC(=O)N1CCN(c2nc(C3CC3)c(-c3ccc(C(F)(F)F)cc3)cc2C#N)C[C@H]1C` [Compound 226, (R)-6-cyclopropyl-2-(4-(3-methoxypropanoyl)-3-methylpiperazin-1-yl)-5-(4-(trifluoromethyl)phenyl)nicotinonitrile], for which the IC50 is at most 1000 nM.
The value for `COCCC(=O)N1CCN(c2nc(C3CC3)c(-c3ccc(OC(F)(F)F)cc3)cc2C#N)C[C@H]1C` [Compound 227, (R)-6-cyclopropyl-2-(4-(3-methoxypropanoyl)-3-methylpiperazin-1-yl)-5-(4-(trifluoromethoxy)phenyl)nicotinonitrile] was at most 1000 nM; that for `COCCC(=O)N1CCN(c2nc(C3CC3)c(-c3cccc(OC(F)(F)F)c3)cc2C#N)C[C@H]1C` [Compound 228, (R)-6-cyclopropyl-2-(4-(3-methoxypropanoyl)-3-methylpiperazin-1-yl)-5-(3-(trifluoromethoxy)phenyl)-nicotinonitrile] was 1000 to 5000 nM.
